Assay results as given in the supplement of paper PMC10307832.

Columns and labels:
Assay in all cases: relative viability (nuclei count vs DMSO), 5 days (fraction); higher = more cells survive
[1] = compound: COc1cc(Nc2ncc3c(n2)-c2ccc(Cl)cc2C(c2c(F)cccc2OC)=NC3)ccc1C(=O)O [Alisertib] + CC(C)C[C@H](NC(=O)[C@H](Cc1ccccc1)NC(=O)c1cnccn1)B(O)O [Bortezomib] (partner 0.002 µM)
How it was run: (§1)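 Each reported value is a median over duplicate plates. It expresses relative viability: treated-well nuclei count divided by vehicle-well nuclei count. Lung cancer cell lines in 1536-well plates were dosed by pin tool a day after seeding, alone with one drug or with a fixed anchor-drug dose plus five library-drug doses (not always all listed) in √10 steps, and nuclei were counted after 5 days.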

[2] = compound: COc1cc(Nc2ncc3c(n2)-c2ccc(Cl)cc2C(c2c(F)cccc2OC)=NC3)ccc1C(=O)O [Alisertib] + Nc1nc2[nH]cc(CCc3ccc(C(=O)N[C@@H](CCC(=O)O)C(=O)O)cc3)c2c(=O)[nH]1 [Pemetrexed] (partner 0.2 µM)
How it was run: as §1

[3] = compound: COc1cc(Nc2ncc3c(n2)-c2ccc(Cl)cc2C(c2c(F)cccc2OC)=NC3)ccc1C(=O)O [Alisertib] + O=C(c1cc(Cc2n[nH]c(=O)c3ccccc23)ccc1F)N1CCN(C(=O)C2CC2)CC1 [Olaparib] (partner 8 µM)
How it was run: as §1

[4] = compound: COc1cc(Nc2ncc3c(n2)-c2ccc(Cl)cc2C(c2c(F)cccc2OC)=NC3)ccc1C(=O)O [Alisertib] + Cc1nc(NC(=O)N2CCC[C@H]2C(N)=O)sc1-c1ccnc(C(C)(C)C(F)(F)F)c1 [Alpelisib] (partner 2 µM)
How it was run: as §1

| Cell Line | relative viability ([1]; first compound 0.005 µM) | relative viability ([1]; first compound 0.01581 µM) | relative viability ([1]; first compound 0.05 µM) | relative viability ([1]; first compound 0.1581 µM) | relative viability ([1]; first compound 0.5 µM) | relative viability ([2]; first compound 0.005 µM) | relative viability ([2]; first compound 0.01581 µM) | relative viability ([2]; first compound 0.05 µM) | relative viability ([2]; first compound 0.1581 µM) | relative viability ([2]; first compound 0.5 µM) | relative viability ([3]; first compound 0.005 µM) | relative viability ([3]; first compound 0.01581 µM) | relative viability ([3]; first compound 0.05 µM) | relative viability ([3]; first compound 0.1581 µM) | relative viability ([3]; first compound 0.5 µM) | relative viability ([4]; first compound 0.005 µM) | relative viability ([4]; first compound 0.01581 µM) | relative viability ([4]; first compound 0.05 µM) | relative viability ([4]; first compound 0.1581 µM) | relative viability ([4]; first compound 0.5 µM) |
| --- | --- | --- | --- | --- | --- | --- | --- | --- | --- | --- | --- | --- | --- | --- | --- | --- | --- | --- | --- | --- |
| NCI-H838 | 0.774 | 0.655 | 0.422 | 0.25 | 0.158 | 0.222 | 0.233 | 0.198 | 0.2 | 0.17 | 0.673 | 0.552 | 0.324 | 0.169 | 0.152 | 0.904 | 0.993 | 0.484 | 0.315 | 0.224 |
| NCI-H1355 | 1.18 | 1.22 | 0.993 | 0.368 | 0.206 | 0.904 | 0.875 | 0.65 | 0.27 | 0.197 | 0.575 | 0.476 | 0.191 | 0.152 | 0.159 | 0.767 | 0.783 | 0.296 | 0.197 | 0.154 |
| NCI-H1437 | 0.489 | 0.457 | 0.191 | 0.191 | 0.114 | 0.28 | 0.261 | 0.235 | 0.231 | 0.166 | 0.585 | 0.47 | 0.383 | 0.257 | 0.179 | 0.91 | 0.836 | 0.425 | 0.213 | 0.112 |
| NCI-H1651 | 0.87 | 0.928 | 0.526 | 0.339 | 0.194 | 0.509 | 0.495 | 0.339 | 0.199 | 0.173 | 0.166 | 0.157 | 0.12 | 0.112 | 0.126 | 0.867 | 0.87 | 0.533 | 0.289 | 0.187 |
| NCI-H1666 | 0.694 | 0.597 | 0.505 | 0.317 | 0.267 | 0.829 | 0.844 | 0.791 | 0.672 | 0.537 | 0.739 | 0.739 | 0.706 | 0.629 | 0.511 | 1.05 | 0.721 | 0.455 | 0.268 | 0.224 |
| NCI-H1734 | 0.775 | 0.621 | 0.383 | 0.227 | 0.175 | 0.42 | 0.427 | 0.405 | 0.286 | 0.203 | 0.591 | 0.531 | 0.289 | 0.315 | 0.172 | 0.623 | 0.628 | 0.444 | 0.253 | 0.239 |
| NCI-H1755 | 0.891 | 0.886 | 0.877 | 0.389 | 0.318 | 0.443 | 0.399 | 0.386 | 0.321 | 0.34 | 0.814 | 0.792 | 0.532 | 0.509 | 0.287 | 0.876 | 0.852 | 0.63 | 0.414 | 0.248 |
| NCI-H1792 | 0.935 | 0.871 | 0.555 | 0.21 | 0.0867 | 0.674 | 0.346 | 0.203 | 0.0756 | 0.0468 | 0.425 | 0.384 | 0.138 | 0.0583 | 0.0651 | 0.678 | 0.606 | 0.246 | 0.0918 | 0.0744 |
| NCI-H1915 | 0.763 | 0.811 | 0.607 | 0.327 | 0.237 | 0.432 | 0.382 | 0.325 | 0.262 | 0.219 | 0.218 | 0.186 | 0.142 | 0.138 | 0.129 | 0.934 | 0.808 | 0.385 | 0.354 | 0.199 |
| NCI-H1975 | 0.324 | 0.334 | 0.215 | 0.159 | 0.152 | 0.289 | 0.265 | 0.235 | 0.214 | 0.185 | 0.68 | 0.627 | 0.347 | 0.234 | 0.163 | 0.632 | 0.621 | 0.295 | 0.215 | 0.168 |
| NCI-H1993 | 0.97 | 0.982 | 0.549 | 0.542 | 0.497 | 0.614 | 0.631 | 0.506 | 0.539 | 0.422 | 1.09 | 0.995 | 0.682 | 0.483 | 0.433 | 0.625 | 0.652 | 0.538 | 0.625 | 0.573 |
| NCI-H2009 | 0.952 | 0.91 | 0.392 | 0.208 | 0.167 | 0.959 | 0.987 | 0.724 | 0.475 | 0.168 | 0.645 | 0.689 | 0.275 | 0.291 | 0.148 | 1.15 | 1.02 | 0.417 | 0.375 | 0.265 |
| NCI-H2023 | 0.904 | 0.824 | 0.539 | 0.199 | 0.0763 | 0.192 | 0.222 | 0.177 | 0.152 | 0.101 | 0.448 | 0.456 | 0.27 | 0.134 | 0.101 | 0.571 | 0.412 | 0.456 | 0.351 | 0.117 |
| NCI-H2085 | 0.923 | 0.979 | 0.73 | 0.327 | 0.394 | 0.638 | 0.896 | 0.837 | 0.27 | 0.294 | 0.74 | 0.723 | 0.4 | 0.335 | 0.35 | 0.892 | 0.91 | 0.465 | 0.352 | 0.314 |
| NCI-H2087 | 0.88 | 0.702 | 0.186 | 0.172 | 0.199 | 0.641 | 0.632 | 0.423 | 0.163 | 0.144 | 0.549 | 0.527 | 0.13 | 0.126 | 0.108 | 0.939 | 0.816 | 0.226 | 0.203 | 0.171 |
| NCI-H2126 | 1.03 | 1.08 | 0.993 | 0.526 | 0.351 | 0.639 | 0.641 | 0.602 | 0.316 | 0.276 | 0.816 | 0.785 | 0.516 | 0.295 | 0.321 | 0.746 | 0.746 | 0.384 | 0.322 | 0.246 |
| NCI-H2228 | 0.809 | 0.827 | 0.406 | 0.142 | 0.134 | 0.344 | 0.336 | 0.26 | 0.121 | 0.0987 | 0.652 | 0.767 | 0.205 | 0.0922 | 0.0747 | 0.781 | 0.499 | 0.256 | 0.133 | 0.193 |
| NCI-H2347 | 0.733 | 1.09 | 0.911 | 0.584 | 0.466 | 0.424 | 0.423 | 0.416 | 0.409 | 0.349 | 0.555 | 0.546 | 0.474 | 0.491 | 0.365 | 0.903 | 0.877 | 0.857 | 0.637 | 0.436 |
| NCI-H2405 | 0.932 | 0.929 | 0.95 | 0.494 | 0.298 | 1.01 | 1.03 | 0.871 | 0.308 | 0.295 | 0.715 | 0.787 | 0.794 | 0.351 | 0.251 | 0.817 | 0.707 | 0.699 | 0.42 | 0.248 |
| NCI-H3122 | 0.987 | 1.04 | 0.865 | 0.47 | 0.308 | 0.184 | 0.189 | 0.194 | 0.186 | 0.143 | 0.627 | 0.717 | 0.41 | 0.261 | 0.222 | 0.741 | 0.747 | 0.472 | 0.295 | 0.211 |
| PC-3 [JPC-3] | 0.796 | 0.828 | 0.775 | 0.539 | 0.39 | 1.06 | 0.988 | 0.885 | 0.388 | 0.287 | 1.09 | 1.02 | 0.802 | 0.632 | 0.483 | 0.952 | 0.98 | 0.751 | 0.598 | 0.369 |
| PC-14 | 0.876 | 0.732 | 0.515 | 0.208 | 0.0801 | 0.103 | 0.138 | 0.146 | 0.0731 | 0.052 | 0.23 | 0.225 | 0.13 | 0.0581 | 0.0485 | 0.901 | 0.84 | 0.686 | 0.277 | 0.106 |
| RERF-LC-KJ | 0.945 | 1.05 | 0.879 | 0.293 | 0.304 | 0.441 | 0.466 | 0.415 | 0.273 | 0.216 | 0.883 | 0.687 | 0.25 | 0.223 | 0.251 | 0.819 | 0.823 | 0.622 | 0.283 | 0.196 |
| SK-LU-1 | 0.963 | 0.862 | 0.503 | 0.403 | 0.253 | 0.972 | 0.722 | 0.405 | 0.333 | 0.267 | 0.437 | 0.447 | 0.344 | 0.247 | 0.183 | 0.929 | 0.458 | 0.286 | 0.302 | 0.247 |
| SW 1573 | 0.937 | 0.726 | 0.492 | 0.29 | 0.161 | 0.781 | 0.767 | 0.269 | 0.21 | 0.114 | 0.486 | 0.294 | 0.209 | 0.136 | 0.115 | 0.768 | 0.798 | 0.455 | 0.272 | 0.171 |
| UMC-11 | 0.34 | 0.184 | 0.0876 | 0.107 | 0.122 | 0.602 | 0.26 | 0.196 | 0.18 | 0.175 | 0.287 | 0.216 | 0.193 | 0.252 | 0.215 | 0.736 | 0.194 | 0.137 | 0.135 | 0.103 |
